Experimental findings from PubChem BioAssay AID248 (DTP/NCI, 2004) are described below.

“And” between values parts separate entries of the source, which are not always exact repeats. Identical values can stand only once. Inconclusive results and toxic doses are left out.

In the assay the test system is L1210 leukemia ip in BDF1 mice, survival T/C. The assay is described as follows: NCI In Vivo Anticancer Drug Screen. Data for tumor model L1210 Leukemia (intraperitoneal) in B6D2F1 (BDF1) mice. As to conditions: endpoint: mean survival time, higher = longer survival. Put shortly:
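Each compound was tested against a transplantable tumor grown in mice. The endpoint was survival, with treated animals benchmarked against vehicle controls as a simple ratio.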

Setting [1] is: dose: 100.0 mg/kg/injection, schedule: Q04DX003 (ip), vehicle: saline with Tween-80.
The mark [2] stands for this setting: dose: 200.0 mg/kg/injection, schedule: Q04DX003 (ip), vehicle: saline with Tween-80.
[3] abbreviates: dose: 400.0 mg/kg/injection, schedule: Q04DX003 (ip), vehicle: saline with Tween-80.
The mark [4] stands for this setting: dose: 100.0 mg/kg/injection, schedule: Q01DX001 (ip), vehicle: saline.
Where [5] appears, read: dose: 200.0 mg/kg/injection, schedule: Q01DX001 (ip), vehicle: saline.
The mark [6] stands for this setting: dose: 400.0 mg/kg/injection, schedule: Q01DX001 (ip), vehicle: saline.
[7] abbreviates: dose: 100.0 mg/kg/injection, schedule: Q01DX009 (ip), vehicle: saline with Tween-80.
Where [8] appears, read: dose: 200.0 mg/kg/injection, schedule: Q01DX009 (ip), vehicle: saline with Tween-80.
The mark [9] stands for this setting: dose: 50.0 mg/kg/injection, schedule: Q01DX009 (ip), vehicle: Klucel (hydroxypropylcellulose) (HPC).
Where [10] appears, read: dose: 100.0 mg/kg/injection, schedule: Q01DX009 (ip), vehicle: Klucel (hydroxypropylcellulose) (HPC).
The mark [11] stands for this setting: dose: 100.0 mg/kg/injection, schedule: Q04DX003 (ip), vehicle: Klucel (hydroxypropylcellulose) (HPC).
Where [12] appears, read: dose: 200.0 mg/kg/injection, schedule: Q01DX009 (ip), vehicle: Klucel (hydroxypropylcellulose) (HPC).
[13] abbreviates: dose: 200.0 mg/kg/injection, schedule: Q04DX003 (ip), vehicle: Klucel (hydroxypropylcellulose) (HPC).
Where [14] appears, read: dose: 100.0 mg/kg/injection, schedule: Q04DX002 (ip), vehicle: Klucel (hydroxypropylcellulose) (HPC).
[15] abbreviates: dose: 200.0 mg/kg/injection, schedule: Q04DX002 (ip), vehicle: Klucel (hydroxypropylcellulose) (HPC).
Where [16] appears, read: dose: 50.0 mg/kg/injection, schedule: Q01DX001 (ip), vehicle: saline.
The mark [17] stands for this setting: dose: 100.0 mg/kg/injection, schedule: Q01DX009 (ip), vehicle: gum acacia.
The mark [18] stands for this setting: dose: 100.0 mg/kg/injection, schedule: Q04DX003 (ip), vehicle: gum acacia.
The mark [19] stands for this setting: dose: 200.0 mg/kg/injection, schedule: Q01DX009 (ip), vehicle: gum acacia.
Where [20] appears, read: dose: 200.0 mg/kg/injection, schedule: Q04DX003 (ip), vehicle: gum acacia.
The mark [21] stands for this setting: dose: 400.0 mg/kg/injection, schedule: Q01DX009 (ip), vehicle: gum acacia.
The mark [22] stands for this setting: dose: 400.0 mg/kg/injection, schedule: Q04DX003 (ip), vehicle: gum acacia.
Setting [23] is: dose: 400.0 mg/kg/injection, schedule: Q01DX009 (ip), vehicle: Klucel (hydroxypropylcellulose) (HPC).

As to `O=C1CCCc2c1[nH]c1ccccc21`, the T/C was 97 % of control under setting [1], 98 % of control under setting [2] and 98 % of control under setting [3].

Regarding `COC1OC(CO)C(O)C1OS(C)(=O)=O` (configuration not stated), the T/C under setting [4] was 101 % of control, the T/C under setting [5] is 103 % of control and the T/C under setting [6] was 101 % of control.

For `Cc1ccc2[nH]c(=S)n(-c3ccccc3)c(=O)c2c1`, the T/C reads like this: (dose: 100.0 mg/kg/injection, schedule: Q04DX002 (ip), vehicle: saline with Tween-80) 91 % of control; (dose: 200.0 mg/kg/injection, schedule: Q04DX002 (ip), vehicle: saline with Tween-80) 91 % of control; (dose: 400.0 mg/kg/injection, schedule: Q04DX002 (ip), vehicle: saline with Tween-80) 91 % of control.

As to `CCN(CC)C(C(=O)Nc1ccccc1)C(=O)Nc1ccccc1`, the T/C is 92 % of control under setting [1], 94 % of control under setting [2] and 90 % of control under setting [3].

As to `Cc1o[nH]c(=O)c1C`, the T/C is, setting by setting: under setting [1], 103 % of control; under setting [2], 94 % of control; under setting [3], 103 % of control.

`CCCCCCCCCCCCCCCCS(=O)(=O)c1ccc(S(=O)(=O)F)cc1NC(=O)C(F)(F)F`: the T/C by setting is: under setting [7], 87 % of control; under setting [1], 92 % of control; under setting [8], 97 % of control; under setting [2], 93 % of control; (dose: 400.0 mg/kg/injection, schedule: Q01DX009 (ip), vehicle: saline with Tween-80) 105 % of control.

In the case of `CCOC(=O)c1cc(=O)n(-c2ccc([N+](=O)[O-])cc2)n1C`, the T/C under setting [1] is 94 % of control, the T/C under setting [2] is 92 % of control and the T/C under setting [3] was 94 % of control.

For the compound `c1ccc2c(c1)ccc1ccc[s+]c12`, the T/C runs as follows: under setting [9], 95 % of control; (dose: 50.0 mg/kg/injection, schedule: Q04DX003 (ip), vehicle: Klucel (hydroxypropylcellulose) (HPC)) 108 % of control; (dose: 100.0 mg/kg/injection, schedule: Q01DX001 (ip), vehicle: acetone) 103 % of control; under setting [10], 94 % of control; under setting [11], 104 % of control; (dose: 200.0 mg/kg/injection, schedule: Q01DX001 (ip), vehicle: acetone) 103 % of control. Besides, the T/C was 97 % of control under setting [12]; 104 % of control under setting [13]; 106 % of control (dose: 400.0 mg/kg/injection, schedule: Q01DX001 (ip), vehicle: acetone).

As for `OCC1OC(n2cnc3c(SCc4ccccc4)nc(NO)nc32)C(O)C1O` (configuration not stated), the T/C (dose: 267.0 mg/kg/injection, schedule: Q01DX001 (ip), vehicle: saline with Tween-80) is 150 % of control.

In the case of `CCN(CC)CC(N)=O`, the T/C is 103 % of control (dose: 100.0 mg/kg/injection, schedule: Q04DX003 (ip), vehicle: saline); 103 % of control (dose: 200.0 mg/kg/injection, schedule: Q04DX003 (ip), vehicle: saline); 111 % of control (dose: 400.0 mg/kg/injection, schedule: Q04DX003 (ip), vehicle: saline).

Consider `CC(=O)N/N=C/c1ccc(N(C)C)cc1`, for which the T/C (dose: 100.0 mg/kg/injection, schedule: Q01DX001 (ip), vehicle: carboxymethylcellulose (CMC)) was 94 % of control and the T/C (dose: 200.0 mg/kg/injection, schedule: Q01DX001 (ip), vehicle: carboxymethylcellulose (CMC)) is 94 % of control.

For `O=C/C=C/c1ccc([N+](=O)[O-])cc1`, the T/C reads like this: under setting [4], 104 % of control; under setting [7], 98 % of control; under setting [5], 102 % of control; under setting [6], 102 % of control.

As for `Cc1ccc(NC(C(=O)O)c2ccccc2)cc1` (configuration not stated), the T/C was 104 % of control under setting [14] and 111 % of control under setting [15].

For `Nc1nc(CCc2ccc(NC(=O)CBr)cc2)c(CCCCc2ccccc2)c(=O)[nH]1`, the T/C under setting [16] was 104 % of control, the T/C under setting [4] was 102 % of control, the T/C under setting [5] is 96 % of control and the T/C under setting [6] was 110 % of control.

For the compound `Cc1ccc(N=C=O)cc1[N+](=O)[O-]`, the T/C under setting [17] is 100 % of control; the T/C under setting [18] was 98 % of control; the T/C under setting [19] is 89 % of control; the T/C under setting [20] is 101 % of control; the T/C under setting [21] is 94 % of control; the T/C under setting [22] was 90 % of control.

As for `CN=C(NCCc1ccccc1)c1ccc(NC(=O)c2ccc(C(=O)Nc3ccc(C(=NC)NCCc4ccccc4)cc3)cc2)cc1`, the T/C by setting is: (dose: 3.75 mg/kg/injection, schedule: Q01DX Z (ip), vehicle: saline) 102 % of control; (dose: 7.5 mg/kg/injection, schedule: Q01DX Z (ip), vehicle: saline) 105 % of control.

For the compound `Clc1ccc2nncn2n1`, the T/C was 97 % of control (dose: 50.0 mg/kg/injection, schedule: Q04DX003 (ip), vehicle: saline with Tween-80); 100 % of control under setting [1]; 100 % of control under setting [2].

As to `NC(=O)Nc1ccc(Cl)cc1`, the T/C is 101 % of control under setting [7]; 99 % of control under setting [11]; 96 % of control under setting [8]; 91 % of control under setting [13]; 102 % of control (dose: 400.0 mg/kg/injection, schedule: Q04DX003 (ip), vehicle: Klucel (hydroxypropylcellulose) (HPC)).

Regarding `O=c1[nH]cnc2ccccc12`, the T/C is 107 % of control under setting [10], 93 % of control under setting [12] and 103 % of control under setting [23].

Consider `CC(=O)c1cccc(OC(=O)Nc2ccc(C)cc2)c1`, for which the T/C reads like this: (dose: 100.0 mg/kg/injection, schedule: Q01DX001 (ip), vehicle: gum acacia) 89 % of control; under setting [17], 95 % of control and 88 % of control; under setting [18], 98 % of control and 100 % of control; (dose: 200.0 mg/kg/injection, schedule: Q01DX001 (ip), vehicle: gum acacia) 100 % of control; under setting [19], 98 % of control and 105 % of control; under setting [20], 93 % of control and 90 % of control. The T/C is, setting by setting: (dose: 400.0 mg/kg/injection, schedule: Q01DX001 (ip), vehicle: gum acacia) 90 % of control; under setting [21], 98 % of control and 109 % of control; under setting [22], 97 % of control and 103 % of control.

Take `CN1CC(=O)n2c(cc3ccccc32)C1=O`: the T/C was 110 % of control (dose: 100.0 mg/kg/injection, schedule: Q04DX002 (ip), vehicle: saline) and 105 % of control (dose: 400.0 mg/kg/injection, schedule: Q04DX002 (ip), vehicle: saline).

`CC(C)=CCN(CC=C(C)C)CCC(C#N)(c1ccc2ccccc2c1)C(C)C` (configuration not stated): the T/C by setting is: under setting [9], 106 % of control; under setting [10], 95 % of control; under setting [11], 102 % of control; under setting [13], 98 % of control.

For the compound `COc1ccc(O)c(/C=N\N=C\c2cc(OC)ccc2O)c1`, the T/C under setting [10] was 106 % of control, the T/C under setting [12] is 101 % of control and the T/C under setting [23] is 95 % of control.

As to `NC(CCCC(N)C(=O)O)C(=O)O` (configuration not stated), the T/C is, setting by setting: (dose: 12.5 mg/kg/injection, schedule: Q04DX002 (ip), vehicle: saline) 103 % of control; (dose: 25.0 mg/kg/injection, schedule: Q04DX002 (ip), vehicle: saline) 100 % of control; (dose: 50.0 mg/kg/injection, schedule: Q04DX002 (ip), vehicle: Klucel (hydroxypropylcellulose) (HPC)) 96 % of control; (dose: 50.0 mg/kg/injection, schedule: Q04DX002 (ip), vehicle: saline) 93 % of control; under setting [14], 101 % of control; under setting [15], 93 % of control.

On to `CN(C)/C=C1\C(=O)Nc2c1c(=O)n(C)c(=O)n2C`, for which the T/C is 93 % of control (dose: 50.0 mg/kg/injection, schedule: Q01DX009 (ip), vehicle: saline) and 90 % of control (dose: 100.0 mg/kg/injection, schedule: Q01DX009 (ip), vehicle: saline).

Regarding `O=C(CCCC(=O)N/N=C/c1cc(Cl)ccc1[N+](=O)[O-])N/N=C\c1cc(Cl)ccc1[N+](=O)[O-]`, the T/C under setting [16] was 98 % of control, the T/C under setting [4] was 90 % of control, the T/C under setting [5] is 95 % of control and the T/C under setting [6] is 98 % of control.
